Assay results: patent US20050227980A1, “Aralkyl and aralkylidene heterocyclic lactam and imides” (Pfizer Inc., priority 2003, published 2005)
Counter-ions that a name gives are not always drawn.

SMILES | melting point
CN1CCN(c2cccc(F)c2C=C2OCCN(c3ccc(C(C)(C)C)cc3)C2=O)CC1.Cl | 187.5 to 192.6 °C
CN1CCN(c2cccc(C(F)(F)F)c2C=C2OCCN(c3ccc(C(C)(C)C)cc3)C2=O)CC1.Cl | 205 °C (dec.)
CN1CCN(c2cccc(Cl)c2C=C2OCCN(c3ccc(C(C)(C)C)cc3)C2=O)CC1.Cl | 139 to 142 °C
CC(C)c1ccc(N2CCOC(Cc3ccccc3N3CCN(C)CC3)C2=O)cc1.Cl (racemic) | 185.7 to 188.1 °C
CN1CCN(c2cccc(Cl)c2CC2OCCN(c3ccc(C(C)(C)C)cc3)C2=O)CC1.Cl (racemic) | 215 °C (dec.)
CN1CCN(c2ccccc2CC2OCCN(c3ccc(-c4ccccc4)cc3)C2=O)CC1.Cl (racemic) | 219.4 to 222.2 °C
CC1CN(c2ccccc2CC2OCCN(c3ccc(C(C)(C)C)cc3)C2=O)CC(C)N1C.Cl (racemic) | 135 °C (dec.)
CN1CCN(c2ccccc2CC2OCCN(Cc3ccc(C(C)(C)C)cc3)C2=O)CC1.Cl (racemic) | 215 to 216 °C
CN1CCN(c2cc(Cl)ccc2CC2OCCN(c3ccc(C(C)(C)C)cc3)C2=O)CC1 (racemic) [Example 27 (±), (±)-4-(4-tert-Butyl-phenyl)-2-[4-chloro-2-(4-methylpiperazin-1-yl)-benzyl]-morpholin-3-one] | 161.9 to 163.5 °C
CN1CCN(c2ccc(C(F)(F)F)cc2CC2OCCN(c3ccc(C(C)(C)C)cc3)C2=O)CC1 (racemic) [Example 32 (±), (±)-4-(4-tert-Butyl-phenyl)-2-[2-(4-methylpiperazin-1-yl)-5-trifluoromethyl-benzyl]-morpholin-3-one] | 145.1 to 146.2 °C
Cc1ccc(N2CCN(C)CC2)c(CC2OCCN(c3ccc(C(C)(C)C)cc3)C2=O)c1 (single isomer, unassigned; (+)) [Example 31 (+), (+)-4-(4-tert-Butyl-phenyl)-2-[5-methyl-2-(4-methylpiperazin-1-yl)-benzyl]-morpholin-3-one] | 92 to 93 °C
Cc1ccc(N2CCN(C)CC2)c(CC2OCCN(c3ccc(C(C)(C)C)cc3)C2=O)c1 (single isomer, unassigned; (-)) [Example 31 (−), (−)-4-(4-tert-Butyl-phenyl)-2-[5-methyl-2-(4-methylpiperazin-1-yl)-benzyl]-morpholin-3-one] | 86 to 88 °C
CC(C)c1ccc(N2CCOC(=Cc3ccccc3N3CCN(C)CC3)C2=O)cc1 [Example 3, 2-[2-(4-Methylpiperazin-1-yl)-benzylidene]-4-(4-isopropylphenyl)-morpholin-3-one] | 155 to 156 °C
CN1CCN(c2ccccc2C=C2OCCN(c3ccc(C(C)(C)C)cc3)C2=O)CC1 [Example 5, 2-[2-(4-Methylpiperazin-1-yl)-benzylidene]-4-(4-tert-butylphenyl)-morpholin-3-one] | 169 to 171 °C
CC1CN(c2ccccc2C=C2OCCN(c3ccc(C(C)(C)C)cc3)C2=O)CC(C)N1C (stereo not drawn) [Example 6, 2-[2-(3,4,5-Trimethylpiperazin-1-yl)-benzylidene]-4-(4-tert-butylphenyl)-morpholin-3-one] | 167 to 168 °C
CN1CCN(c2cc(Cl)ccc2C=C2OCCN(c3ccc(C(C)(C)C)cc3)C2=O)CC1 [Example 10, 4-(4-tert-Butyl-phenyl)-2-[4-chloro-2-(4-methylpiperazin-1-yl)-benzylidene]-morpholin-3-one] | 209 to 210.8 °C
CN1CCN(c2c(F)cccc2C=C2OCCN(c3ccc(C(C)(C)C)cc3)C2=O)CC1 [Example 12, 4-(4-tert-Butyl-phenyl)-2-[3-fluoro-2-(4-methylpiperazin-1-yl)-benzylidene]-morpholin-3-one] | 184.3 to 187.1 °C
CN1CCN(c2cc(C(F)(F)F)ccc2C=C2OCCN(c3ccc(C(C)(C)C)cc3)C2=O)CC1 [Example 14, 4-(4-tert-Butyl-phenyl)-2-[2-(4-methylpiperazin-1-yl)-4-trifluoromethyl-benzylidene]-morpholin-3-one] | 186.3 to 191.9 °C
Cc1ccc(N2CCN(C)CC2)c(C=C2OCCN(c3ccc(C(C)(C)C)cc3)C2=O)c1 [Example 15, 4-(4-tert-Butyl-phenyl)-2-[5-methyl-2-(4-methylpiperazin-1-yl)-benzylidene]-morpholin-3-one] | 209.2 to 211 °C
CN1CCN(c2ccccc2C=C2OCCN(Cc3ccc(C(C)(C)C)cc3)C2=O)CC1 [Example 20, 4-(4-tert-Butyl-benzyl)-2-[2-(4-methylpiperazin-1-yl)-benzylidene]-morpholin-3-one] | 68 to 70 °C
CN1CCN(c2cc(Cl)ccc2CC2OCCN(c3ccc(C(C)(C)C)cc3)C2=O)CC1.Cl (stereo not drawn) [Example 27 (+)] | 159.5 to 161.7 °C
CN1CCN(c2cc(Cl)ccc2CC2OCCN(c3ccc(C(C)(C)C)cc3)C2=O)CC1.Cl (stereo not drawn) [Example 27 (−)] | 159 to 161.8 °C
CN1CCN(c2ccc(C(F)(F)F)cc2CC2OCCN(c3ccc(C(C)(C)C)cc3)C2=O)CC1.Cl (stereo not drawn) [Example 32 (+)] | 136 to 138 °C
CN1CCN(c2ccc(C(F)(F)F)cc2CC2OCCN(c3ccc(C(C)(C)C)cc3)C2=O)CC1.Cl (stereo not drawn) [Example 32 (−)] | 128 to 130 °C

Other lines, results leading:

melting point | SMILES
179 to 180 °C (dec.) | CN1CCN(c2ccccc2CC2OCCN(c3ccc(C(C)(C)C)cc3)C2=O)CC1 (racemic) (as salt: tartrate) [Example 23, (±)-4-(4-tert-Butyl-phenyl)-2-[2-(4-methylpiperazin-1-yl)-benzyl]-morpholin-3-one]
190.5 to 192.1 °C | CN1CCN(c2cccc(F)c2CC2OCCN(c3ccc(C(C)(C)C)cc3)C2=O)CC1.Cl (racemic) [Example 28 (±)]
155.9 to 159.9 °C | CN1CCN(c2cc(F)ccc2CC2OCCN(c3ccc(C(C)(C)C)cc3)C2=O)CC1.Cl (racemic) [Example 29 (±)]
107 to 108.7 °C | CN1CCN(c2c(F)cccc2CC2OCCN(c3ccc(C(C)(C)C)cc3)C2=O)CC1.Cl (racemic) [Example 30 (±)]
165.8 to 171.2 °C | CN1CCN(c2ccccc2CC2OCCN(c3ccc(C(C)(C)C)cc3)C2=O)CC1.Cl (single isomer, unassigned) [Example 24 (+)]
187.1 to 191.2 °C | CN1CCN(c2ccccc2CC2OCCN(c3ccc(C(C)(C)C)cc3)C2=O)CC1.Cl (single isomer, unassigned) [Example 24 (−)]
176.9 to 179.3 °C | CN1CCN(c2cccc(F)c2CC2OCCN(c3ccc(C(C)(C)C)cc3)C2=O)CC1.Cl (stereo not drawn) [Example 28 (+)]
178 to 181.4 °C | CN1CCN(c2cccc(F)c2CC2OCCN(c3ccc(C(C)(C)C)cc3)C2=O)CC1.Cl (stereo not drawn) [Example 28 (−)]
157.4 to 159.6 °C | CN1CCN(c2cc(F)ccc2CC2OCCN(c3ccc(C(C)(C)C)cc3)C2=O)CC1.Cl (stereo not drawn) [Example 29 (+)]
156.2 to 158.1 °C | CN1CCN(c2cc(F)ccc2CC2OCCN(c3ccc(C(C)(C)C)cc3)C2=O)CC1.Cl (stereo not drawn) [Example 29 (−)]
104.7 °C (dec.) | CN1CCN(c2c(F)cccc2CC2OCCN(c3ccc(C(C)(C)C)cc3)C2=O)CC1.Cl (stereo not drawn) [Example 30 (+)]
128.5 to 129.9 °C | CN1CCN(c2c(F)cccc2CC2OCCN(c3ccc(C(C)(C)C)cc3)C2=O)CC1.Cl (stereo not drawn) [Example 30 (−)]
